Assay results: patent US6316451A, “Heterocyclyl anthracyclinone derivatives” (Pharmacia & Upjohn S.p.A., priority 1998, dated 2001)

Target: T1, Aβ1-40 peptide monomer (Homo sapiens, UniProt P05067)
T1 construct: An Aβ1-40 peptide monomer stock solution was prepared
Test: Inhibition of the seed-triggered aggregation of Aβ1-40 peptide monomer (HPLC quantitation of residual monomer)
Assay type: biochemical
Conditions: 50 μm test compound; 20 μM Aβ1-40 monomer; 4 μm pre-formed sonicated Aβ1-40 fibrils (seed); phosphate buffer pH 7.4, 150 mM NaCl; two hours at 37° C.
Procedure: The compounds disclosed in the present invention interfere with the aggregation of monomeric Aβ1-40 peptide stimulated by a seed of Aβ1-40 amyloid fibrils. The activity of the compounds was assessed according to the procedure reported below.
An Aβ1-40 peptide monomer stock solution was prepared by dissolving the peptide in dimethylsulfoxide at a concentration of 33.33 mg/ml. The stock solution was further diluted 11.5 times with dimethylsulfoxide. This solution was then diluted with 10 mM phosphate buffer pH 7.4 containing 150 mM sodium chloride to prepare the test solution.
To an eppendorf tube containing 47 μl of Aβ1-40 peptide monomer solution were added 3 μl of a 830 μM water solution of the test compound containing 66.4 μM, based on the Aβ1-40 monomer content, of pre-formed sonicated Aβ1-40 fibrils: the resulting solution was 20 μM in Aβ1-40 monomer, 50 μm in the test compound and contained 4 μm, based on the Aβ1-40 monomer content, of pre-formed sonicated Aβ1-40 fibrils. The aggregation was allowed to proceed for two hours at 37° C. The suspension was then centrifuged at 15000 rpm for 15 minutes at +4° C., the supernatant was collected and the Aβ1-40 monomer was quantitated by HPLC.
The activity is expressed as the percent of inhibition of the aggregation of a 20 μM Aβ1-40 monomer solution stimulated by 4 μm, based on the Aβ1-40 monomer content, pre-formed sonicated Aβ1-40 fibrils.

T1 sequence (P05067 672-711 limits assumed): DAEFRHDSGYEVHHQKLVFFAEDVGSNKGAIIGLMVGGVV

| SMILES | % INHIBITION of the aggregation of Aβ1-40 monomer [%] |
| --- | --- |
| COc1cccc2c1C(=O)c1c(O)c3c(c(O)c1C2=O)C[C@@](O)(c1csc(NCCN(C)C)n1)C[C@@H]3O [Compound 1d, 9-Deacetyl-9-[2-(2-dimethylaminoethylamino)-thiazol-4-yl]-daunomycinone] | 33.7 |
| COc1cccc2c1C(=O)c1c(O)c3c(c(O)c1C2=O)C[C@@](O)(c1csc(N2CCN(C)CC2)n1)CC3 [Compound 1i, 7-Deoxy-9-deacetyl-9-[2-(4-methyl-piperazin-1-yl)-thiazol-4-yl]-daunomycinone] | 31.7 |
| COc1cccc2c1C(=O)c1c(O)c3c(c(O)c1C2=O)C[C@@](O)(c1csc(N2CCN(C)CC2)n1)C[C@@H]3N1CCOCC1 [Compound 1j, 7-Deoxy-7-(4-morpholinyl)-9-deacetyl-9-[2-(4-methyl-perazin-1-yl)-thiazol-4-yl]-daunomycinone] | 49.2 |
